Assay results as given in ChEMBL document CHEMBL1201862, “PubChem BioAssay data set” (2004).
The source made the active and inactive calls.

What was measured:
[1] = tested on: HEK293; test: cells; settings: Homo sapiens
[2] = tested on: HEK293; test: cells; settings: Homo sapiens; remark: listed apart in the source
[3] = HeLa cell cytotoxicity, dose response, cytotoxicity control for MgcRacGAP inhibitor project (AID 624300); format: functional
[4] = target: Procathepsin L (Homo sapiens, UniProt P07711)
[5] = Artemis endonuclease inhibitor potency, dose response, biochemical, fluorescence intensity (AID 720701); format: functional;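 further: Artemis endonuclease enzyme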
[6] = target: T1, Aspartyl aminopeptidase (Plasmodium falciparum 3D7, UniProt Q8I2J3)
T1 sequence (Q8I2J3 whole entry): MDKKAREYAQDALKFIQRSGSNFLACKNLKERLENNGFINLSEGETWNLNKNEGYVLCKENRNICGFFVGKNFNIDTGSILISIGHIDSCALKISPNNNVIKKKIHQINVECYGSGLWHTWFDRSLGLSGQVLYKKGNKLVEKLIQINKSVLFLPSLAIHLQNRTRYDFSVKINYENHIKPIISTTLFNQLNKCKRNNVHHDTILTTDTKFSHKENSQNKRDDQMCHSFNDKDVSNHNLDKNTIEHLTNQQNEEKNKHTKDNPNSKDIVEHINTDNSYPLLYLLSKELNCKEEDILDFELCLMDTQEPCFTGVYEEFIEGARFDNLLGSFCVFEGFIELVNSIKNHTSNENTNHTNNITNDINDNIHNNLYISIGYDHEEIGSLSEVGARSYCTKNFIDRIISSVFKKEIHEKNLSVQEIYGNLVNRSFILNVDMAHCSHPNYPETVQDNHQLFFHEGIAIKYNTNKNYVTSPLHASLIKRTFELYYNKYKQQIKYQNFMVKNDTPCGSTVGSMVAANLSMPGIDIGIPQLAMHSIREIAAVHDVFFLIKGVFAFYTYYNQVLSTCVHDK

[7] = target: Intestinal-type alkaline phosphatase (Mus musculus, UniProt P24822); test: PubChem AID 488785; format: functional
[8] = target: Intestinal-type alkaline phosphatase (Homo sapiens, UniProt P09923); test: inhibition of human intestinal alkaline phosphatase – biochemical, dose response (AID 488876); format: functional
[9] = target: T2, Rac GTPase-activating protein 1 (Homo sapiens, UniProt Q9H0H5); test: MgcRacGAP GTPase-activating activity inhibitors, confirmation, biochemical, ADP Hunter fluorescence, primary and confirmatory (AID 624330); format: functional
T2 sequence (Q9H0H5 whole entry): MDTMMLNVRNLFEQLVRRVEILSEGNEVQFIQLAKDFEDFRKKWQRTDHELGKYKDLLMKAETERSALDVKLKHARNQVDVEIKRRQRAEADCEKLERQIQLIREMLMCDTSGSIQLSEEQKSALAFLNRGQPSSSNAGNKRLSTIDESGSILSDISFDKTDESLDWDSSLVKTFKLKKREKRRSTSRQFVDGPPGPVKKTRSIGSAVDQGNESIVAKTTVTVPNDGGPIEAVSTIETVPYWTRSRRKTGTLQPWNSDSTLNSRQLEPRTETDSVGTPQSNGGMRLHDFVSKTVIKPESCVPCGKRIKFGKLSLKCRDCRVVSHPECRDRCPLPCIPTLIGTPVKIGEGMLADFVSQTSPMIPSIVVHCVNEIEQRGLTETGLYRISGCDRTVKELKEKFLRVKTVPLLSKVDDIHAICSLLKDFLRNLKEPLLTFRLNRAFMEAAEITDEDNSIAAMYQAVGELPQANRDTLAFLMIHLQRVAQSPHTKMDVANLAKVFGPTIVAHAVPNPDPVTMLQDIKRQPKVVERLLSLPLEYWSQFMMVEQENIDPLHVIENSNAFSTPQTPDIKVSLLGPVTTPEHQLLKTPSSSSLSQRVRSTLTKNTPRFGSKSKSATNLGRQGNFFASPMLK

[10] = target: T3, Alkaline phosphatase, tissue-nonspecific isozyme (Homo sapiens, UniProt P05186); test: TNAP enzyme inhibition by screening hits, dose response, selectivity assay for mouse IAP inhibitor project, biochemical, human TNAP, uHTS hits (AID 488906); format: functional
T3 sequence (P05186 whole entry): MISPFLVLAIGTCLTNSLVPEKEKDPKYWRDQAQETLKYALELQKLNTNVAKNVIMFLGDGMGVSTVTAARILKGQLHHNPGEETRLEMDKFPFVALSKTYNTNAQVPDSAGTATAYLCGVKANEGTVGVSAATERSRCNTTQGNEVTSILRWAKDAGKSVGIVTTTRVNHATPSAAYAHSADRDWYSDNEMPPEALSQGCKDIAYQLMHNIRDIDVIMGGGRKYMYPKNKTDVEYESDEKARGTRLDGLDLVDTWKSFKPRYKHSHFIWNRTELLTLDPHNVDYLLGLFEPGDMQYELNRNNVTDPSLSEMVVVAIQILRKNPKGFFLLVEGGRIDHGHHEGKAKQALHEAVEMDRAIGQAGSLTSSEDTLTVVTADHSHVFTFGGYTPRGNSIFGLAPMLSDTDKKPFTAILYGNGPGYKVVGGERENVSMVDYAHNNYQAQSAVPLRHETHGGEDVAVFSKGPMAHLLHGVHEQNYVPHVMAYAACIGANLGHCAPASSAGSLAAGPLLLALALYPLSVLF

[11] = target: Bcl-2-like protein 10 (Homo sapiens, UniProt Q9HD36); test: displacers of TR3 peptide from Bcl-B, primary screen, selectivity assay for Bfl-1 inhibitor project, biochemical, fluorescence polarization, FITC-TR3 peptide (AID 748);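 further: fluorescence polarization from a fluorescein-labelled TR3 peptide binding purified Bcl-B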
[12] = cytotoxicity in HMLE control line with eGFP shRNA, dose response, counter-screen for HMLE_sh_ECad selective toxicity project, cell-based, HMLE_sh_eGFP, luminescence (AID 463074); format: functional, Homo sapiens;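 further: HMLE human mammary epithelial cells expressing control shRNA against eGFP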
[13] = Luminescence Cell-Based Dose Retest to Confirm Inhibitors of Cancer Stem Cells. [Related pubchem assays (depositor defined):AID2717, AID2721]; format: functional; settings: Homo sapiens
[14] = target: T4, DNA repair protein RAD52 homolog (Homo sapiens, UniProt P43351); format: functional, biochemical
T4 sequence (P43351 whole entry): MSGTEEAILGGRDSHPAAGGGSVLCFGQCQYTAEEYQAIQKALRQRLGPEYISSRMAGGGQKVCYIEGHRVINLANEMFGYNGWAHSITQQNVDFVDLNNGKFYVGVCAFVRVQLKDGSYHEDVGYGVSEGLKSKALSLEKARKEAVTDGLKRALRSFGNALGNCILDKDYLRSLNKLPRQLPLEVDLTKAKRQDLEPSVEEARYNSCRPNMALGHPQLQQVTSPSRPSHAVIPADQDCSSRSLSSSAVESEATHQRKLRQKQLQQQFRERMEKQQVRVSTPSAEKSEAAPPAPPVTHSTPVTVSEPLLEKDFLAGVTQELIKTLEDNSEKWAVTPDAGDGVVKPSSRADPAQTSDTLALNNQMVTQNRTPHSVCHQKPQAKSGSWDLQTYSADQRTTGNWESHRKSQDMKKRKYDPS

[15] = inhibitors of intracellular T. cruzi replication, confirmation, NIH3T3 host cells, beta-gal luminescence (AID 2044); format: functional, cell-based;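 further: intracellular parasites grown in NIH/3T3 mouse fibroblasts as host cells; luminescent beta-galactosidase reporter signal from transgenic T. cruzi replicating inside host cells; inhibitors lower the luminescence signal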
[16] = cytotoxicity toward NIH3T3 fibroblasts, dose response, counter-screen, cell-based, ATP luminescence, mouse fibroblasts (AID 2010); format: functional; settings: NIH3T3;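 further: cells exposed to compound for about 90 hours before reading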
[17] = target: T5, Ubiquitin-conjugating enzyme E2 N (Homo sapiens, UniProt P61088); format: functional;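 further: Dose-response confirmation in a TR-FRET assay detecting UBC13-driven polyubiquitin chain formation, inhibition measured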
T5 sequence (P61088 whole entry): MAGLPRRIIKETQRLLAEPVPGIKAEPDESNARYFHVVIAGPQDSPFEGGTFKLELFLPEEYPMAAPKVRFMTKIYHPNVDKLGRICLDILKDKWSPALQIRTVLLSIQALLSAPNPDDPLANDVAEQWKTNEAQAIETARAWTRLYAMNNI

[18] = target: T6, Replicative DNA helicase DnaB (Mycobacterium tuberculosis, UniProt P9WMR3); test: DnaB intein splicing inhibitors, dose response, biochemical, cell-free fluorescence (AID 449749); format: functional
T6 sequence (P9WMR3 whole entry): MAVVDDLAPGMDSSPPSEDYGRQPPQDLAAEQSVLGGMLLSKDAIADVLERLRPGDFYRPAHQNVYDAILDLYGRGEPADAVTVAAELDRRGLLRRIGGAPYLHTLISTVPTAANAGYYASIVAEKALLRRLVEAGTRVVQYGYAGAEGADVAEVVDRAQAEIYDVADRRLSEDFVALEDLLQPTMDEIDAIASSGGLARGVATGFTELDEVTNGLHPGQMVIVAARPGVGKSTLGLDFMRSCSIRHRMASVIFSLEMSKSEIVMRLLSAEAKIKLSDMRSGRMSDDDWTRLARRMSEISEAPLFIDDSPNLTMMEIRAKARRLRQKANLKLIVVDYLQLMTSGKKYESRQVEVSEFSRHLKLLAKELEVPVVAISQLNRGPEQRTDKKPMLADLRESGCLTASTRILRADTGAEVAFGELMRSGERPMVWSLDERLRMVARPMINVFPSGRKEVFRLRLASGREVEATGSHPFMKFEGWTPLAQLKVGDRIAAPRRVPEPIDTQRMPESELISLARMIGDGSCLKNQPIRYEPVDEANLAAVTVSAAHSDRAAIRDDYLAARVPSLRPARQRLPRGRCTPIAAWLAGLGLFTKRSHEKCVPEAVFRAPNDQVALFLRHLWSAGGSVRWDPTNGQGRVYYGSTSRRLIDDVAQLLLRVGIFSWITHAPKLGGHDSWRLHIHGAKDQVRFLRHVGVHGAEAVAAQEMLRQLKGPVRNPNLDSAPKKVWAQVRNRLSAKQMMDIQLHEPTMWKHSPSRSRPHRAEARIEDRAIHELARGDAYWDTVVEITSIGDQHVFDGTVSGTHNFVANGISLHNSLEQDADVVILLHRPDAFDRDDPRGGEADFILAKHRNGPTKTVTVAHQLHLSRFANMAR

[19] = target: Large T antigen (Simian virus 40, UniProt P03070); format: functional, Betapolyomavirus macacae;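 further: Confirmatory-stage PubChem screen for compounds that inhibit SV40 T antigen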
[20] = target: T7, Protein RecA (Mycobacterium tuberculosis, UniProt P9WHJ3); test: Fluorescence Cell-Free Homogeneous Dose Retest to Identify Inhibitors of RecA-Intein Splicing Activity. [Related pubchem assays (depositor defined):AID2097, AID2223, AID489010, AID492950]; format: functional
T7 sequence (P9WHJ3 whole entry): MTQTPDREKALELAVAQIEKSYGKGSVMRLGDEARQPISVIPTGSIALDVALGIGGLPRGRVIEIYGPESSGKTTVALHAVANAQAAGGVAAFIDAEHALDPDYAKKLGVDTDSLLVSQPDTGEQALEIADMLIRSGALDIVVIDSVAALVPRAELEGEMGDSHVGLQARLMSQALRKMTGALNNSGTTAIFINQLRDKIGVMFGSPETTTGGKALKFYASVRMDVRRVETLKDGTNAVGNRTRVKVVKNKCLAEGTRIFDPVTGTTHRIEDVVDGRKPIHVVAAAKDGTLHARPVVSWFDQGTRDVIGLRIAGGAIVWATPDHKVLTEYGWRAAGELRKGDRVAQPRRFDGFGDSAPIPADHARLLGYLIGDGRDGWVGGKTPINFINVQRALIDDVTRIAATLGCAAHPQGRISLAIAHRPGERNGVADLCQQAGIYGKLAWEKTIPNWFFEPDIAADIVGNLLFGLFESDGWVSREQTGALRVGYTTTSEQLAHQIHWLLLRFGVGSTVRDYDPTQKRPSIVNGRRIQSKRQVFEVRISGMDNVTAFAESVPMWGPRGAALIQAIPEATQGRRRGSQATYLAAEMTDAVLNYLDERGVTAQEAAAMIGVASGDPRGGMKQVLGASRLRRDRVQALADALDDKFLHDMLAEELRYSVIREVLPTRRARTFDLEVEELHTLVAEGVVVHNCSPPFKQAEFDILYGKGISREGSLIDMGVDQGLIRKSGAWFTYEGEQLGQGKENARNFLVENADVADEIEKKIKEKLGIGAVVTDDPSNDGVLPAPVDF

[21] = target: T8, Streptokinase A (Streptococcus pyogenes serotype M1, UniProt P10520); test: S. pyogenes streptokinase expression inhibitors, potency, dose response, plasminogen activation absorbance, OD405 (AID 1914); format: functional, Streptococcus pyogenes M1 GAS;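 further: secreted streptokinase activity via plasminogen activation per viability signal from cell pellet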
T8 sequence (P10520 whole entry): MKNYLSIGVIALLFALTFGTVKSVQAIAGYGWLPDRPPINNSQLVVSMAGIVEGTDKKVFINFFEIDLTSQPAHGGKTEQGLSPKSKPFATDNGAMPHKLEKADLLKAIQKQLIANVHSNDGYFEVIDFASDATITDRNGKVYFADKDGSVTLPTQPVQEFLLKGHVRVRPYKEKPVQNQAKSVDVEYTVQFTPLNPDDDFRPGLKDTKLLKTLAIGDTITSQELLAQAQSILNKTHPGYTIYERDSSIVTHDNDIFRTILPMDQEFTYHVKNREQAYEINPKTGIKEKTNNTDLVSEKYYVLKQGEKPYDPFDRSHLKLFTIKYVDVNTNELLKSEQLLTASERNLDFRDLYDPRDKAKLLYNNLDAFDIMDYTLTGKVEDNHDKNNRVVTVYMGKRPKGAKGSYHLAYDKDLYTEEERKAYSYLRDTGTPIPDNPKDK

Intestinal-type alkaline phosphatase (Homo sapiens, UniProt P09923), sequence (P09923 whole entry): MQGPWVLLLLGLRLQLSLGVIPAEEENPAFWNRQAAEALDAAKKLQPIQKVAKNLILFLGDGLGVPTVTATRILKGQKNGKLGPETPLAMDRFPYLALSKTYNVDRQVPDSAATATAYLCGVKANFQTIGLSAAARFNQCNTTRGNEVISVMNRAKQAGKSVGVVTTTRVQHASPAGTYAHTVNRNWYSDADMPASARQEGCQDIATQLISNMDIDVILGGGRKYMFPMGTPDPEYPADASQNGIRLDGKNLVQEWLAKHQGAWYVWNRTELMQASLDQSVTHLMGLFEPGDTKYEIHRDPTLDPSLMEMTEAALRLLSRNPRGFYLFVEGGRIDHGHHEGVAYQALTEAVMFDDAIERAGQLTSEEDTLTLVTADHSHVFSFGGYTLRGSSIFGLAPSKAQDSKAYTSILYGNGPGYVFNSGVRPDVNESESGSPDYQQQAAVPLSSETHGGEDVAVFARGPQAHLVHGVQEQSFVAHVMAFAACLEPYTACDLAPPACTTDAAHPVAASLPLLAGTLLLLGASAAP
Intestinal-type alkaline phosphatase (Mus musculus, UniProt P24822), sequence (P24822 whole entry): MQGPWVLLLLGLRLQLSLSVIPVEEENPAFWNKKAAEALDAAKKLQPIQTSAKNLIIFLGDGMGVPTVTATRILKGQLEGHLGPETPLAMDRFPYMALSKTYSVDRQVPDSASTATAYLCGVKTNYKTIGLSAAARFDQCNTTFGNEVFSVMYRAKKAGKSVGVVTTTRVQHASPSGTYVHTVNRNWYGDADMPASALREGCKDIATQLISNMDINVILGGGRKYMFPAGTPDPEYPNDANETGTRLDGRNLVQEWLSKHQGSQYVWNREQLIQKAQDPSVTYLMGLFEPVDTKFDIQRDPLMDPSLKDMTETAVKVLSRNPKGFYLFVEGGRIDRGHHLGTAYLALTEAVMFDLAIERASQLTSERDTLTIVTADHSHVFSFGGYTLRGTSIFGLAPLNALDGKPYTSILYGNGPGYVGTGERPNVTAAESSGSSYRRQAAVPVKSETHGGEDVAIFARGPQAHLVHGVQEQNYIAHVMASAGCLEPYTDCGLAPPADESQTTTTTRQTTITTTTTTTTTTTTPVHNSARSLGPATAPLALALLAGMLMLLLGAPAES
Bcl-2-like protein 10, sequence (Q9HD36 whole entry): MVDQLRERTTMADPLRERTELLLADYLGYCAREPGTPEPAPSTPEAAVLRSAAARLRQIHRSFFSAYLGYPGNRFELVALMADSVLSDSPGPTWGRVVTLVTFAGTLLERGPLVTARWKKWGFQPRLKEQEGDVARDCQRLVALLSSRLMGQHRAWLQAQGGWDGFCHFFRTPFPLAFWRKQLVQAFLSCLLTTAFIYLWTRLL
Procathepsin L, sequence (P07711 whole entry): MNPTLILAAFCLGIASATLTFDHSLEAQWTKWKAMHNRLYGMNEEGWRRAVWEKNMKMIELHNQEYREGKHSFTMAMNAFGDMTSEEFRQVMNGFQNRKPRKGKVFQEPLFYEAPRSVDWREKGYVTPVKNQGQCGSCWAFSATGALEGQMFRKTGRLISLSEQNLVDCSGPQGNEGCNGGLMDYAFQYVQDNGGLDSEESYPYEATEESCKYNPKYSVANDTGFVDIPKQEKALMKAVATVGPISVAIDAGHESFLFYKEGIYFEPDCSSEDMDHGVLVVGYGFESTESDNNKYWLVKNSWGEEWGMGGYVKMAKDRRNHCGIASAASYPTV
Large T antigen, sequence (P03070 whole entry): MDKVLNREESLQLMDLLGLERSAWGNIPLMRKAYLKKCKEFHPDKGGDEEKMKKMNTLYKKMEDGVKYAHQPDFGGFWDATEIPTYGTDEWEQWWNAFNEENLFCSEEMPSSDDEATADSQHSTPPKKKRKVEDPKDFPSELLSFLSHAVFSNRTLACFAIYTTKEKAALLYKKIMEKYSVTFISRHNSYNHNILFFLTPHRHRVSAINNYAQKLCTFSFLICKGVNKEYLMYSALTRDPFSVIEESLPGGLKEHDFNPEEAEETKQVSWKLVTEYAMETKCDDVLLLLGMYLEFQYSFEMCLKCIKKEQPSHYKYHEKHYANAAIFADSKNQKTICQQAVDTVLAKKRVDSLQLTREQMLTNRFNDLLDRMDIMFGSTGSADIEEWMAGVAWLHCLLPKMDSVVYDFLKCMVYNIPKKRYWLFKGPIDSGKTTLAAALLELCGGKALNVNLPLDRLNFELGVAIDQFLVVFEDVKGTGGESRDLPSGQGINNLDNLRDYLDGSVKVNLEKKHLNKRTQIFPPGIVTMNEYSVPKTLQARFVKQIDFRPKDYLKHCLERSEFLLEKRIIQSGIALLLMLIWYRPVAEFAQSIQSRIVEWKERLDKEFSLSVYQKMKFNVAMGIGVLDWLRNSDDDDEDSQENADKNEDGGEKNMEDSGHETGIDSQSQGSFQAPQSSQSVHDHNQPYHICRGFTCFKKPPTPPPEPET

| Structure (SMILES) | EC50 [1] | EC50 [2] | IC50 [7] | IC50 [8] | IC50 [10] | AC50 [12] | AC50 [13] | other results |
| --- | --- | --- | --- | --- | --- | --- | --- | --- |
| C1COCCO1.CCOc1ccc(N2C(=O)CC(N(CCc3ccc(OC)c(OC)c3)C(S)=Nc3ccccc3)C2=O)cc1 (stereo not drawn) | > 59.7 µM (inactive) | > 59.7 µM (inactive) | – | – | – | – | – | – |
| O=C(COc1ccccc1C(=O)N/N=C\c1ccc(O)c(O)c1)N/N=C/c1ccc(O)c(O)c1 | – | – | 12.8 µM (active) | > 100 µM (inactive) | > 100 µM (inactive) | – | – | CC50 [3]: 100 µM (active); IC50 [4]: > 59.6 µM (not active); IC50 [5]: 1.91 µM (active); IC50 [6]: 1.5 µM (active); IC50 [9]: 21.1 µM (active); IC50 [11]: 1.07 µM (active) |
| CN(c1ccccc1)S(=O)(=O)c1ccc(-c2ccccc2)cc1 | – | – | – | – | – | 62.2 µM (active) | 2.66 µM (active) | – |
| Cc1cc(N2CCN(C)CC2)nc2ccc(NC(=S)N3CCN(c4ccc(Cl)cc4)CC3)cc12 | – | – | – | – | – | 184 µM (active) | 0.367 µM (active) | AC50 [14]: 3.07 µM (active); EC50 [15]: 0.762 µM (active); EC50 [16]: 11.9 µM (active); IC50 [17]: > 20 µM (inactive) |
| O=C(CCl)Nc1ccc(N2CCCCCC2)cc1 | > 59.7 µM (inactive) | > 59.7 µM (inactive) | – | – | – | – | – | AC50 [18]: 14.3 µM (active); IC50 [19]: 18.9 µM (active); EC50 [20]: 7.62 µM (active) |
| Cc1cc(Cl)ccc1NC(=S)NCCC(c1ccccc1)c1ccccc1 | – | – | 7.04 µM (active) | > 100 µM (inactive) | 80.1 µM (active) | – | – | EC50 [21]: 48.5 µM (active) |
